Experimental findings from ChEMBL document CHEMBL4800726, “Data for DCP probe MSC-4381” (2021) are described below.

Series [1] has as its target 5-hydroxytryptamine receptor 1D (Homo sapiens) (UniProt P28221). The conditions noted are these: Compound concentration 10.0 uM.
Series [2] has as its target Mu-type opioid receptor (Homo sapiens) (UniProt P35372). The conditions noted are these: Compound concentration 10.0 uM.
Series [3] has as its target Sodium-dependent dopamine transporter (Homo sapiens, UniProt Q01959). As to the kind of experiment: GPCRScan assay: inhibition of DAT. Further details: radioligand conc. used [nm] 3.6 – 16.0, parental cells stable HEK.
The target in series [4] is Histamine H3 receptor (Homo sapiens) (UniProt Q9Y5N1). The conditions noted are these: Compound concentration 10.0 uM.
Series [5] addresses Sigma intracellular receptor 2 (Homo sapiens) (UniProt Q5BJF2). Conditions: Compound concentration 10.0 uM; call rule not given here.
For series [6], the target named is GABA-A receptor; anion channel (Rattus norvegicus) (UniProt O09028+P15431+P18506+P18508+P19969+P20236+P23574+P23576+P28471+P28473+P30191+P62813+P63079+P63138+Q91ZM7+Q9ES14). The conditions noted are these: Compound concentration 10.0 uM.
Series [7] deals with 5-hydroxytryptamine receptor 1B (Homo sapiens) (UniProt P28222). The conditions noted are these: Compound concentration 10.0 uM.
For series [8], the target named is Monocarboxylate transporter 4 (Homo sapiens, UniProt O15427). Description: Lactate efflux inhibition assay (MDA-MB-231).
For series [9], the target named is Monocarboxylate transporter 1 (Homo sapiens, UniProt P53985). Description: Lactate efflux inhibition assay (SNU-398).
The target of series [10] is D(3) dopamine receptor (Homo sapiens) (UniProt P35462). Conditions: Compound concentration 10.0 uM.
Series [11] deals with 5-hydroxytryptamine receptor 7 (Homo sapiens) (UniProt P34969). Description: 5-HT7 (h) Eurofins-Cerep binding assay. Further details: ligand concentration 4 nM. The conditions noted are these: filed as agonist, Compound concentration 10.0 uM.
Series [12] concerns the target D(1A) dopamine receptor (Homo sapiens) (UniProt P21728). As to the kind of experiment: D1 (h) Eurofins-Cerep binding assay. Further details: ligand concentration 0.3 nM. The conditions noted are these: filed as antagonist, Compound concentration 10.0 uM.
For series [13], the target named is 5-hydroxytryptamine receptor 1E (Homo sapiens, UniProt P28566). Description: GPCRScan assay: inhibition of 5-HT1E. Further details: radioligand conc. used [nm] 2.1 – 5.0, parental cells stable HEK.
The target in series [14] is T1, 5-hydroxytryptamine receptor 5A (Homo sapiens, UniProt P47898). Description: 5-HT5a (h) Eurofins-Cerep binding assay. The conditions noted are these: filed as agonist, Compound concentration 10.0 uM. The arrangement: ligand concentration 1.5 nM.
The target in series [15] is Adenosine receptor A3 (Homo sapiens) (UniProt P0DMS8). As to the kind of experiment: A3 (h) Eurofins-Cerep binding assay. Further details: ligand concentration 0.15 nM. The conditions noted are these: filed as agonist, Compound concentration 10.0 uM.
The target of series [16] is Adenosine receptor A2a (Homo sapiens) (UniProt P29274). As to the kind of experiment: A2A (h) Eurofins-Cerep binding assay. The arrangement: ligand concentration 6 nM. The conditions noted are these: filed as agonist, Compound concentration 10.0 uM.
Series [17] concerns the target T1, 5-hydroxytryptamine receptor 5A. As to the kind of experiment: GPCRScan assay: inhibition of 5-HT5A. The arrangement: radioligand conc. used [nm] 2.0 - 3.3, parental cells Flp-In CHO.
Series [18] concerns the target Cholecystokinin receptor type A (Homo sapiens) (UniProt P32238). Description: CCK1 (CCKA) (h) Eurofins-Cerep binding assay. Further details: ligand concentration 0.08 nM. The conditions noted are these: filed as agonist, Compound concentration 10.0 uM.
Series [19] concerns the target Neuropeptide Y receptor type 1 (Homo sapiens) (UniProt P25929). As to the kind of experiment: Y1 (h) Eurofins-Cerep binding assay. Further details: ligand concentration 0.025 nM. The conditions noted are these: filed as agonist, Compound concentration 10.0 uM.
Series [20] has as its target 5-hydroxytryptamine receptor 2A (Homo sapiens) (UniProt P28223). As to the kind of experiment: 5-HT2A (h) Eurofins-Cerep binding assay. The arrangement: ligand concentration 0.5 nM. Conditions: filed as antagonist, Compound concentration 10.0 uM.
The target of series [21] is Prostaglandin E2 receptor EP4 subtype (Homo sapiens) (UniProt P35408). As to the kind of experiment: EP4 (h) Eurofins-Cerep binding assay. The arrangement: ligand concentration 0.5 nM. Conditions: filed as agonist, Compound concentration 10.0 uM.
For series [22], the target named is Neurotensin receptor type 1 (Homo sapiens) (UniProt P30989). Description: NTS1 (NT1) (h) Eurofins-Cerep binding assay. Conditions: filed as agonist, Compound concentration 10.0 uM. The arrangement: ligand concentration 0.05 nM.
Series [23] concerns the target T2, 5-hydroxytryptamine receptor 1A (Homo sapiens) (UniProt P08908).
T2 sequence (whole entry): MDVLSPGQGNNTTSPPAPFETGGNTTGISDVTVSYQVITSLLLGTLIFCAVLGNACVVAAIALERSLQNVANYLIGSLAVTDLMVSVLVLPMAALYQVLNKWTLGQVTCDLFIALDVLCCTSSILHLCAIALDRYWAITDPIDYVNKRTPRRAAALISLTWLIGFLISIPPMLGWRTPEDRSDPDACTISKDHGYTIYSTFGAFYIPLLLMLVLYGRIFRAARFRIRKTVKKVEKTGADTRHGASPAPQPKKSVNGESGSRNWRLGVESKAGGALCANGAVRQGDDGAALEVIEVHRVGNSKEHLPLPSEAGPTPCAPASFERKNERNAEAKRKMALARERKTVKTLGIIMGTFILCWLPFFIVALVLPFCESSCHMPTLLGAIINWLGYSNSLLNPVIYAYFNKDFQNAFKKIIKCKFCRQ
As to the kind of experiment: 5-HT1A (h) Eurofins-Cerep binding assay. The arrangement: ligand concentration 0.5 nM. Conditions: filed as agonist, Compound concentration 10.0 uM.

The target in series [24] is Cannabinoid receptor 1 (Homo sapiens) (UniProt P21554). As to the kind of experiment: CB1 (h) Eurofins-Cerep binding assay. The conditions noted are these: filed as agonist, Compound concentration 10.0 uM. The arrangement: ligand concentration 0.5 nM.
The target in series [25] is 5-hydroxytryptamine receptor 6 (Homo sapiens, UniProt P50406). As to the kind of experiment: 5-HT6 (h) Eurofins-Cerep binding assay. The arrangement: ligand concentration 2 nM. The conditions noted are these: filed as agonist, Compound concentration 10.0 uM.
The target in series [26] is T3, Muscarinic acetylcholine receptor M2 (Homo sapiens) (UniProt P08172).
T3 sequence (whole entry): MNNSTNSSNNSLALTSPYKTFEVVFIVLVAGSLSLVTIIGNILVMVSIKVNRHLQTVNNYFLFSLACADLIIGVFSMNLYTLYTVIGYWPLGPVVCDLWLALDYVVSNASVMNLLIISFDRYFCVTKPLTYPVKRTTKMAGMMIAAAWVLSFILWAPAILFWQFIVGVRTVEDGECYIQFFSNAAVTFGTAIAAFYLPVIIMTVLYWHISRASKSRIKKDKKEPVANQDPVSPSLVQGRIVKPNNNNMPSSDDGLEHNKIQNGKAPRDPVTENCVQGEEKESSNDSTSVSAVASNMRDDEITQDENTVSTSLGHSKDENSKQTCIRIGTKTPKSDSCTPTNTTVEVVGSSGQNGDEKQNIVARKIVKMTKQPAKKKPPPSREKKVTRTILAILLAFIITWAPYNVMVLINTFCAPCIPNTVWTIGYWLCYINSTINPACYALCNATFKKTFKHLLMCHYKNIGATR
Description: M2 (h) Eurofins-Cerep binding assay. Further details: ligand concentration 2 nM. Conditions: filed as antagonist, Compound concentration 10.0 uM.

The target in series [27] is C-X-C chemokine receptor type 2 (Homo sapiens) (UniProt P25025). As to the kind of experiment: CXCR2 (IL-8B) (h) Eurofins-Cerep binding assay. Further details: ligand concentration 0.025 nM. The conditions noted are these: filed as agonist, Compound concentration 10.0 uM.
The target in series [28] is Nociceptin receptor (Homo sapiens) (UniProt P41146). As to the kind of experiment: NOP (ORL1) (h) Eurofins-Cerep binding assay. The arrangement: ligand concentration 0.06 nM. The conditions noted are these: filed as agonist, Compound concentration 10.0 uM.
Series [29] deals with Neuromedin-K receptor (Homo sapiens) (UniProt P29371). Description: NK3 (h) Eurofins-Cerep binding assay. The arrangement: ligand concentration 0.4 nM. Conditions: filed as antagonist, Compound concentration 10.0 uM.
In series [30] the target is Delta-type opioid receptor (Homo sapiens, UniProt P41143). Description: delta (DOP) (h) Eurofins-Cerep binding assay. Further details: ligand concentration 0.5 nM. Conditions: filed as agonist, Compound concentration 10.0 uM.
Series [31] concerns the target Vasopressin V1a receptor (Homo sapiens) (UniProt P37288). As to the kind of experiment: V1 a (h) Eurofins-Cerep binding assay. The arrangement: ligand concentration 0.3 nM. Conditions: filed as agonist, Compound concentration 10.0 uM.
The target in series [32] is Muscarinic acetylcholine receptor M3 (Homo sapiens) (UniProt P20309). Conditions: Compound concentration 10.0 uM.
In series [33] the target is L-type Ca2+ channel (dihydropyridine site) (Rattus norvegicus, UniProt P22002+P27732+Q02485). Description: Ca2+ channel (L, dihydropyridine site) Eurofins-Cerep binding assay. It counts as protein assay. The arrangement: incubation time 90 min, incubation temperature RT, ligand concentration 0.1 nM. Conditions: rat cerebral cortex, probe [3H]nitrendipine, compound concentration 10 uM, read-out: % Inhibition of Control Specific Binding (Mean n=2).

The structures appear in SMILES notation.

T1 sequence (P47898 whole entry): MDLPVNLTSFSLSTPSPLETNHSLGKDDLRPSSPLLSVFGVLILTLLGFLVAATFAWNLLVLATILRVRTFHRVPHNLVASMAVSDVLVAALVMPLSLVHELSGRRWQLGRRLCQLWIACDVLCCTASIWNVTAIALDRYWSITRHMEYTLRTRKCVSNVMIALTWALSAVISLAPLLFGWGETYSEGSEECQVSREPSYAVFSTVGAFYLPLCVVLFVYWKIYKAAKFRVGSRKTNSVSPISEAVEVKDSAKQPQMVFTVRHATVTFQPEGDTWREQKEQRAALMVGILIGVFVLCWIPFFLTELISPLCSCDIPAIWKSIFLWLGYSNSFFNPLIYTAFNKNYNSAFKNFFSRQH
Sodium-dependent dopamine transporter, sequence (Q01959 whole entry): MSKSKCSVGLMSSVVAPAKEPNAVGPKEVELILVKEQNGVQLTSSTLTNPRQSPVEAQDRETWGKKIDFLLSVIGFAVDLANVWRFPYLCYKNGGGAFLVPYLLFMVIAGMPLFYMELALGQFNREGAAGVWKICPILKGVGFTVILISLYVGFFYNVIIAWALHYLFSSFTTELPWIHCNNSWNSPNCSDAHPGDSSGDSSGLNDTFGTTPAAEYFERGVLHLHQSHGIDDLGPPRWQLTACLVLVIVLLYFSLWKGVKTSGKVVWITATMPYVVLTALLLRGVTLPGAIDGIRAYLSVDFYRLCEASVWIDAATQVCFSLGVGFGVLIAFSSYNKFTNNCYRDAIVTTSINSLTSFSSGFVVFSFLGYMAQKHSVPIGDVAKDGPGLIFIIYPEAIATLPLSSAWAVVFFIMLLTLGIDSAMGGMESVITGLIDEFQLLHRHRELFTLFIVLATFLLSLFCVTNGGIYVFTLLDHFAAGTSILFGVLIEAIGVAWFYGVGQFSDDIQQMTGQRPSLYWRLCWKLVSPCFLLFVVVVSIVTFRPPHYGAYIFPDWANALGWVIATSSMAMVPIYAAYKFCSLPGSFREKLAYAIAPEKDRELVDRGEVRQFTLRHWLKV
5-hydroxytryptamine receptor 1E, sequence (P28566 whole entry): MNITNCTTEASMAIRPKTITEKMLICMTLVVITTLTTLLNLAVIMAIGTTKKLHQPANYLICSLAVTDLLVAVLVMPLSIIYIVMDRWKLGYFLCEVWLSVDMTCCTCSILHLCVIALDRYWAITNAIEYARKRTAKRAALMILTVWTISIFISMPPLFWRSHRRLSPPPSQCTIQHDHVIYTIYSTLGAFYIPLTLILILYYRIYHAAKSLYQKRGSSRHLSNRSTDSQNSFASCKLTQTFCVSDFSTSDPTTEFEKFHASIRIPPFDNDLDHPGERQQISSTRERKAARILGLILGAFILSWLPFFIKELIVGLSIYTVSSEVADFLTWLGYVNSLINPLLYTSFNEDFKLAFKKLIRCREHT
C-X-C chemokine receptor type 2 (Homo sapiens), sequence (P25025 whole entry): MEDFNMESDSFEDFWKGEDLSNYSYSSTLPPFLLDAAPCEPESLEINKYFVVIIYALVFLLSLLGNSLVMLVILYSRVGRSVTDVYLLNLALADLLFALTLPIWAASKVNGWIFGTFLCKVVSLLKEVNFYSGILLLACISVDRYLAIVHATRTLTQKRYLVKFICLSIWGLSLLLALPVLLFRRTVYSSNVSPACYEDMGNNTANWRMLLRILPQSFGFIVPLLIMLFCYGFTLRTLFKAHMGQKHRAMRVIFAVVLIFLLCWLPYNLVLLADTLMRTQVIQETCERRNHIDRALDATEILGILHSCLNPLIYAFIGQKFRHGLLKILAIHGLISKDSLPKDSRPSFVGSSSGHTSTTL
Nociceptin receptor (Homo sapiens), sequence (P41146 whole entry): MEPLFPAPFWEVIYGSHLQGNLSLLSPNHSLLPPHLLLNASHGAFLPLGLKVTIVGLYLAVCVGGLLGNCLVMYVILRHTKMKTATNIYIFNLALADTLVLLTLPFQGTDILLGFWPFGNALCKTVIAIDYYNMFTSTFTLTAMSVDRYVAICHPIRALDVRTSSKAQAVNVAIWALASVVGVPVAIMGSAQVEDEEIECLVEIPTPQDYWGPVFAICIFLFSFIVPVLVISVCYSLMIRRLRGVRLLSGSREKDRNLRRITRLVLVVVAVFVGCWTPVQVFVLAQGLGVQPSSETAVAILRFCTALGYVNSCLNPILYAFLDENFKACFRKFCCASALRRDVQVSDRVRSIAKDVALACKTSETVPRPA
Sigma intracellular receptor 2 (Homo sapiens), sequence (Q5BJF2 whole entry): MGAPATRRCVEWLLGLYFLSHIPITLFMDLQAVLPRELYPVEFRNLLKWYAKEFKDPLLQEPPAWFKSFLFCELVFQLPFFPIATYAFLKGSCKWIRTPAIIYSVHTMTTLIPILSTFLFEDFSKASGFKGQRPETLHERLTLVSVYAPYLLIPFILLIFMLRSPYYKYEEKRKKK
D(1A) dopamine receptor (Homo sapiens), sequence (P21728 whole entry): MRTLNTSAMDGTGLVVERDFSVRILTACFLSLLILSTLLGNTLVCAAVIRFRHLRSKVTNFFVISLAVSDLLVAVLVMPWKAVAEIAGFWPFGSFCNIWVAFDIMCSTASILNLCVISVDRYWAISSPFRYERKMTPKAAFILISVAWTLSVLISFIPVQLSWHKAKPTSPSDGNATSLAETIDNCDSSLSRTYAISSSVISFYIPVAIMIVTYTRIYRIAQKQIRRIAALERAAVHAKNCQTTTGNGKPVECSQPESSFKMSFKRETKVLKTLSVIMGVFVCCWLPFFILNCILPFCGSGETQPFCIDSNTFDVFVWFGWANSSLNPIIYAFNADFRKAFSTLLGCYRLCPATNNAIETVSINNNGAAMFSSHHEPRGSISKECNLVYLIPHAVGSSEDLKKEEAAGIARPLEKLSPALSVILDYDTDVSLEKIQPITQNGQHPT
Mu-type opioid receptor (Homo sapiens), sequence (P35372 whole entry): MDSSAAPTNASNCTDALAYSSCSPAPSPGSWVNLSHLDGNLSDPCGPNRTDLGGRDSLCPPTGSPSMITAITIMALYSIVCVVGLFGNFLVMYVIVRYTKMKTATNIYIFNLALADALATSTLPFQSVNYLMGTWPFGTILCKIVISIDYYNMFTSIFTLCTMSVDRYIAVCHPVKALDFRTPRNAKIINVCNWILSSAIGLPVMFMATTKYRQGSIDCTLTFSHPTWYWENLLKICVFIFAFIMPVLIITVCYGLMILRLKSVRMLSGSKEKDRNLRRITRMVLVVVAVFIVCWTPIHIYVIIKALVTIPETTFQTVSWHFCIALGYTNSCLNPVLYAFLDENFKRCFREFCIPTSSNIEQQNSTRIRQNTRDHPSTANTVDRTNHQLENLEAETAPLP
5-hydroxytryptamine receptor 6, sequence (P50406 whole entry): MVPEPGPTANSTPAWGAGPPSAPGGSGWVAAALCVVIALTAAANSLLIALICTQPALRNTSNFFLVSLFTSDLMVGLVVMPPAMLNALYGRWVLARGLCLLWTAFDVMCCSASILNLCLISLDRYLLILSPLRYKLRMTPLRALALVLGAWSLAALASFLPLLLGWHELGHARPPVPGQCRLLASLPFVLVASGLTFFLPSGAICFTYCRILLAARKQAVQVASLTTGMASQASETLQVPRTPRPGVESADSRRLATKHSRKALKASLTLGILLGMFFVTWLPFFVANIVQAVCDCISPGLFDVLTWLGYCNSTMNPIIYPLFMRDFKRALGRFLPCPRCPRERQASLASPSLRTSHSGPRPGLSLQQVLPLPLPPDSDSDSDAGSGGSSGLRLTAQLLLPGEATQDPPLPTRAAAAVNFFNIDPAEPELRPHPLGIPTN
Monocarboxylate transporter 4, sequence (O15427 whole entry): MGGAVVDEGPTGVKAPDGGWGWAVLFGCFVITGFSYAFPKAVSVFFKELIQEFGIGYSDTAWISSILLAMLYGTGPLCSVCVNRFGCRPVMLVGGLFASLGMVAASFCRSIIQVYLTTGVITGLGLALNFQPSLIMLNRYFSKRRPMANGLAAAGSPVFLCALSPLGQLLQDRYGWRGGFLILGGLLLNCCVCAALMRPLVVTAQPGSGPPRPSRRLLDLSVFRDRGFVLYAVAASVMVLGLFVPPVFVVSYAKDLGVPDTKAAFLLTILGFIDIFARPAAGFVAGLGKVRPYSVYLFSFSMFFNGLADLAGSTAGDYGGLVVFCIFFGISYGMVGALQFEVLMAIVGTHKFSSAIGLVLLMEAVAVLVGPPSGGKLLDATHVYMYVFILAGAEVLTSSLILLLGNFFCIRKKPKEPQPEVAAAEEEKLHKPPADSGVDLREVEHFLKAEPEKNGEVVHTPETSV
5-hydroxytryptamine receptor 1D (Homo sapiens), sequence (P28221 whole entry): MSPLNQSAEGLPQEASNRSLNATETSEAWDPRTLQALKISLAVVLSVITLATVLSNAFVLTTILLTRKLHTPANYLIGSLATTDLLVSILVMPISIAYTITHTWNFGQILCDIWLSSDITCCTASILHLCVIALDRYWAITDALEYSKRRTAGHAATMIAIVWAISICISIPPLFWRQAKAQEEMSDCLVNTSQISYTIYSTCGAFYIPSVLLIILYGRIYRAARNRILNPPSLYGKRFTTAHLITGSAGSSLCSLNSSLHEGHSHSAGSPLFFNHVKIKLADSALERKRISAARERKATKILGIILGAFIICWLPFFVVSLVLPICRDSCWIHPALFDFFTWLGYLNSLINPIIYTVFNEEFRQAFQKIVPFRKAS
Cannabinoid receptor 1 (Homo sapiens), sequence (P21554 whole entry): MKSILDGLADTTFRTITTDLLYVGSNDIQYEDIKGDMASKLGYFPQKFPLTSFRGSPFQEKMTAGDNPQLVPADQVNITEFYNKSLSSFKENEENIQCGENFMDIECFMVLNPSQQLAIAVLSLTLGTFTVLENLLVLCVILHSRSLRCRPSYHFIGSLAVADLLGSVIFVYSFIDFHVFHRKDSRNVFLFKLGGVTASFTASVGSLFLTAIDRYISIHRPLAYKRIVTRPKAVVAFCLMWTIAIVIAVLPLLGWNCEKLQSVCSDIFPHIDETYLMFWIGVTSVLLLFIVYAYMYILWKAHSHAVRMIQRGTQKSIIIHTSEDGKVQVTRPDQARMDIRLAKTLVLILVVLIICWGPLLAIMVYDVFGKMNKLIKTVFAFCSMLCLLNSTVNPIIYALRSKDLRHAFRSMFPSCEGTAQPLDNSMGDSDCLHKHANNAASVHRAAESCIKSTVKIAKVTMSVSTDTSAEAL

As for `COc1cc(C(=O)O)ncc1C#Cc1ccccc1NS(=O)(=O)c1cccc2c(N(C)C)ccnc12` [MSC-0516], the inhibition (in general, the drop in the measured response relative to a control, in per cent) was 11.4% in series [1]; 35.4% in series [2]; 6.76% in series [4]; 25% in series [5]; 19.4% in series [6]; 10.6% in series [7]. The inhibition in [10] was -9.21%. The Ki is 9.59 µM in [3] (read-out: Ki) and 9.55 µM in [3] (read-out: pKi (converted)). Besides, the results for the concentration for half-maximal inhibition (IC50) in series [8] and in series [9] were 0.506 µM (not active) and > 4 µM (not active), respectively.
Consider `CCOc1ccc(S(=O)(=O)Nc2ccc(Cl)cc2C#Cc2cnc(C(=O)O)cc2OC)c2ncccc12` [MSC-4381], for which the % Inhibition of Control Specific Binding (Mean n=2) in series [11] was -6.6%; in series [12], 28.9%; in series [14], -20.7%; in series [15], 28.1%; in series [16], -5.5%; in [18], -18.1%. Moreover, the % Inhibition of Control Specific Binding (Mean n=2) in series [19] was -7.5%; in series [20], -4.1%; in [21] it was 47.2%; in series [22], -10.4%; in series [23], -58.9%; in series [24] it was -11.3%. For the same compound, the % Inhibition of Control Specific Binding (Mean n=2) in series [25] was 32%; in series [26], 35.8%; in series [27], 7.3%; in series [28], -14.7%; in [29], -8.7%; in series [30], 11.7%. Besides, the % Inhibition of Control Specific Binding (Mean n=2) in [31] came out at 92.3%. In addition, the Ki in series [13] was over 10 µM; in series [17], 1.63 µM. Moreover, the pKi (in general, the negative decadic logarithm of the Ki, by convention in mol/L) in series [13] is listed as under 5. Besides, in series [32], the inhibition is 9.34%. In addition, in series [33], the inhibition at 90 min, 10 µM was -11%.
